From patent US10294202B2, “Pyrrolidinones as herbicides” (FMC Corporation, priority 2013, dated 2019)

Columns and labels:
[1] = system: velvetleaf; assay: Test C pre-/postemergence herbicide test; type: in vivo, Abutilon theophrasti
Outline: (§1)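 Pre-emergence: seeds sown in loam/sand blend and treated with compound in surfactant-containing solvent. Post-emergence: plants at 2–18 cm (1- to 4-leaf stage) in peat-based medium sprayed with the same formulation. Visual rating versus controls after 13–15 days in greenhouse, scale 0 (no effect) to 100 (complete control).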

[2] = system: giant foxtail; assay: Test A pre-/postemergence herbicide test; type: in vivo, Setaria faberii
Outline: (§2)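 Seeds in loam–sand blend received preemergence directed soil spray; separately, plants 2–10 cm at one- to two-leaf stage received postemergence spray, both with test chemicals in non-phytotoxic solvent with surfactant. After ~10 days in greenhouse, injury rated visually against untreated controls, 0 (no effect) to 100 (complete control).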

[3] = system: ragweed; assay: Test C pre-/postemergence herbicide test; type: in vivo, Ambrosia elatior
Outline: as §1

[4] = system: ragweed; assay: Test A pre-/postemergence herbicide test; type: in vivo, Ambrosia elatior
Outline: as §2

[5] = system: blackgrass; assay: Test A postemergence herbicide test; type: in vivo, Alopecurus myosuroides
Outline: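 Young potted plants in a loam–sand mix, one- to two-leaf stage and 2–10 cm tall, receive the test chemical postemergence and stay in a greenhouse for approximately 10 days. Injury is then judged by eye against untreated plants, scored 0 (none) to 100 (complete control).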

[6] = system: oat, wild; assay: Test C pre-/postemergence herbicide test; type: in vivo, Avena fatua; conditions: Postemergence
Outline: as §1

[7] = system: kochia; assay: Test A pre-/postemergence herbicide test; type: in vivo, Kochia scoparia
Outline: as §2

[8] = system: ryegrass, Italian; assay: Test C pre-/postemergence herbicide test; type: in vivo, Lolium multiflorum
Outline: as §1

[9] = system: rice; assay: Test C flooded paddy test; type: in vivo, Oryza sativa; conditions: Flood
Outline: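 Ratings reflect visual comparison with controls on a 0–100 scale, where 100 is complete control. Compound is dosed into standing paddy water 3 cm deep over 2-leaf-stage plants, kept in the greenhouse 13 to 15 days.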

[10] = Postemergence, 31 g ai/ha, scale 0 to 100 (0 no effect, 100 complete control)
[11] = Postemergence, 62 g ai/ha, scale 0 (no effect) to 100 (complete control)
[12] = Postemergence, 125 g ai/ha, scale 0 to 100 (0 no effect, 100 complete control)
[13] = Postemergence, 250 g ai/ha, scale 0 to 100 (0 no effect, 100 complete control)
[14] = Preemergence, 31 g ai/ha, scale 0 to 100, 0 is no effect and 100 is complete control
[15] = Preemergence, 62 g ai/ha, scale 0 to 100 (0 no effect, 100 complete control)
[16] = Preemergence, 125 g ai/ha, scale 0 to 100 (0 no effect, 100 complete control)
[17] = 125 g ai/ha, visual rating, 0 to 100 scale, 0 no effect, 100 complete control, approximately 10 days, preemergence
[18] = Postemergence, 125 g ai/ha, 0 to 100 scale, 0 is no effect, 100 is complete control
[19] = preemergence, 500 g ai/ha, 0 to 100 scale, 0 is no effect and 100 is complete control
[20] = 125 g ai/ha, 0 to 100 scale, 0 is no effect, 100 is complete control
[21] = 31 g ai/ha, scale 0 to 100 (0 no effect, 100 complete control)
[22] = 62 g ai/ha, scale 0 (no effect) to 100 (complete control)
[23] = 125 g ai/ha, scale 0 to 100 (0 no effect, 100 complete control)
[24] = 250 g ai/ha, scale 0 to 100 (0 no effect, 100 complete control)
[25] = 125 g ai/ha, scale of 0 to 100 where 0 is no effect and 100 is complete control, 13 to 15 days
[26] = 250 g ai/ha, scale of 0 to 100 where 0 is no effect and 100 is complete control, 13 to 15 days
[27] = Postemergence, 500 g ai/ha, 0 to 100 scale (0 no effect, 100 complete control)
[28] = Preemergence, 125 g ai/ha, 0 to 100 scale where 0 is no effect and 100 is complete control

## O=C1NCC(c2cccc(C(F)(F)F)c2)C1C(=O)Nc1ccc(F)cc1F (racemic) [Compound 207]
[1]; [10]
  Plant response rating, Velvetleaf: 0
[1]; [11]
  Plant response rating, Velvetleaf: 0
[1]; [12]
  Plant response rating, Velvetleaf: 0
[1]; [13]
  Plant response rating, Velvetleaf: 0
[1]; [14]
  Velvetleaf plant response rating: 0
[1]; [15]
  Velvetleaf plant response rating: 0
[1]; [16]
  Plant response rating, Velvetleaf: 0
[1]; Preemergence, 250 g ai/ha
  Plant response rating (scale of 0 to 100), Velvetleaf: 0
[2]; [17]
  Plant response rating, Foxtail, Giant: 90
[2]; [18]
  Plant response rating, Foxtail, Giant: 90
[2]; Postemergence, 500 g ai/ha
  Foxtail, Giant plant response rating (0 to 100 scale, 0 is no effect, 100 is complete control): 90
[2]; [19]
  Plant response rating, Foxtail, Giant: 90
[3]; [10]
  Plant response rating, Ragweed: 0
[3]; [11]
  Plant response rating, Ragweed: 0
[3]; [12]
  Plant response rating, Ragweed: 0
[3]; [13]
  Plant response rating, Ragweed: 15
[3]; [14]
  Ragweed plant response rating: 0
[3]; [15]
  Ragweed plant response rating: 0
[3]; [16]
  Plant response rating, Ragweed: 0
[3]; Preemergence, 250 g ai/ha
  Plant response rating (scale of 0 to 100), Ragweed: 5
[4]; [17]
  Plant response rating, Ragweed: 0
[4]; [18]
  Plant response rating, Ragweed: 0
[4]; Postemergence, 500 g ai/ha
  Ragweed plant response rating (0 to 100 scale, 0 is no effect, 100 is complete control): 0
[4]; [19]
  Plant response rating, Ragweed: 20
[5]; [20]
  Plant response rating, Blackgrass: 70
[5]; 500 g ai/ha
  Blackgrass plant response rating (0 to 100 scale, 0 is no effect, 100 is complete control): 70
[6]; [21]
  Plant response rating, Oat, Wild: 0
[6]; [22]
  Plant response rating, Oat, Wild: 0
[6]; [23]
  Plant response rating, Oat, Wild: 0
[6]; [24]
  Plant response rating, Oat, Wild: 0
[7]; [17]
  Plant response rating, Kochia: 20
[7]; [18]
  Plant response rating, Kochia: 0
[7]; Postemergence, 500 g ai/ha
  Kochia plant response rating (0 to 100 scale, 0 is no effect, 100 is complete control): 0
[7]; [19]
  Plant response rating, Kochia: 30
[8]; [10]
  Plant response rating, Ryegrass, Italian: 0
[8]; [11]
  Plant response rating, Ryegrass, Italian: 0
[8]; [12]
  Plant response rating, Ryegrass, Italian: 0
[8]; [13]
  Plant response rating, Ryegrass, Italian: 0
[8]; [14]
  Ryegrass, Italian plant response rating: 0
[8]; [15]
  Ryegrass, Italian plant response rating: 0
[8]; [16]
  Plant response rating, Ryegrass, Italian: 0
[8]; Preemergence, 250 g ai/ha
  Plant response rating (scale of 0 to 100), Ryegrass, Italian: 0
[9]; [25]
  Plant response rating, Rice: 15
[9]; [26]
  Plant response rating, Rice: 15
[9]; 500 g ai/ha, scale 0 to 100
  Plant response rating, Rice: 15
[9]; 1000 g ai/ha, scale 0 to 100
  Plant response rating, Rice: 15

## O=C1NCC(c2cccc(Cl)c2)C1C(=O)Nc1cccc(F)c1F (racemic) [Compound 275]
[1]; [10]
  Plant response rating, Velvetleaf: 5
[1]; [11]
  Plant response rating, Velvetleaf: 10
[1]; [12]
  Plant response rating, Velvetleaf: 10
[1]; [13]
  Plant response rating, Velvetleaf: 50
[1]; [14]
  Velvetleaf plant response rating: 0
[1]; [15]
  Velvetleaf plant response rating: 0
[1]; [16]
  Plant response rating, Velvetleaf: 25
[1]; Preemergence, 250 g ai/ha
  Plant response rating (scale of 0 to 100), Velvetleaf: 30
[2]; [18]
  Plant response rating, Foxtail, Giant: 90
[2]; [27]
  Plant response rating, Foxtail, Giant: 90
[2]; [28]
  Plant response rating, Foxtail, Giant: 90
[2]; [19]
  Plant response rating, Foxtail, Giant: 90
[3]; [10]
  Plant response rating, Ragweed: 20
[3]; [11]
  Plant response rating, Ragweed: 65
[3]; [12]
  Plant response rating, Ragweed: 70
[3]; [13]
  Plant response rating, Ragweed: 70
[3]; [14]
  Ragweed plant response rating: 5
[3]; [15]
  Ragweed plant response rating: 5
[3]; [16]
  Plant response rating, Ragweed: 60
[3]; Preemergence, 250 g ai/ha
  Plant response rating (scale of 0 to 100), Ragweed: 85
[4]; Postemergence, 125 g ai/ha, visual rating on 0 to 100 scale (0 no effect, 100 complete control), approx. 10 days
  Plant response rating, Ragweed: 30
[4]; [27]
  Plant response rating, Ragweed: 30
[4]; [28]
  Plant response rating, Ragweed: 20
[4]; [19]
  Plant response rating, Ragweed: 40
[5]; [20]
  Plant response rating, Blackgrass: 50
[5]; 500 g ai/ha, 0 to 100 scale (0 no effect, 100 complete control)
  Plant response rating, Blackgrass: 60
[6]; [21]
  Plant response rating, Oat, Wild: 0
[6]; [22]
  Plant response rating, Oat, Wild: 0
[6]; [23]
  Plant response rating, Oat, Wild: 0
[6]; [24]
  Plant response rating, Oat, Wild: 5
[7]; [18]
  Plant response rating, Kochia: 50
[7]; [27]
  Plant response rating, Kochia: 80
[7]; [28]
  Plant response rating, Kochia: 60
[7]; [19]
  Plant response rating, Kochia: 80
[8]; [10]
  Plant response rating, Ryegrass, Italian: 0
[8]; [11]
  Plant response rating, Ryegrass, Italian: 0
[8]; [12]
  Plant response rating, Ryegrass, Italian: 5
[8]; [13]
  Plant response rating, Ryegrass, Italian: 25
[8]; [14]
  Ryegrass, Italian plant response rating: 15
[8]; [15]
  Ryegrass, Italian plant response rating: 40
[8]; [16]
  Plant response rating, Ryegrass, Italian: 50
[8]; Preemergence, 250 g ai/ha
  Plant response rating (scale of 0 to 100), Ryegrass, Italian: 60
[9]; 62 g ai/ha, scale of 0 to 100 where 0 is no effect and 100 is complete control, 13 to 15 days
  Plant response rating, Rice: 0
[9]; [25]
  Plant response rating, Rice: 0
[9]; [26]
  Plant response rating, Rice: 10
[9]; 500 g ai/ha, scale 0 to 100
  Plant response rating, Rice: 10
